Test results: patent US5358945A, “Pyrimidine compound and pharmaceutically acceptable salts thereof” (Mitsui Petrochemical Industries, Ltd., priority 1990, dated 1994)

Columns and labels:
[1] = test system: Mouse neuroblastoma cells NS-20Y; assay: Neurite appearance in mouse neuroblastoma NS-20Y cells (Table 8); assay type: cell-based;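 also: cells grown in polyornithine-coated dishes, with timing counted from the start of culture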
Mouse neuro 2a cells = assay: Neurite outgrowth of mouse neuroblastoma neuro 2a cells (Table 7); assay type: cell-based; settings: mean ± S.D.
Description: The biological activities in vitro of the compounds of formula (I) on cells of the nervous system were tested. The cells tested were mouse neuroblastoma cell line neuro-2a (Dainippon Pharmaceutical Co., Ltd.) which have been established as the cells of the nervous system. The above nerve cells were grown in an incubator at 37° C. in the presence of 5% carbon dioxide gas exponentially, and the cultured for a certain period of time together with the compounds of formula (I).
The effects of the compounds of this invention on neuroblastoma cells were examined by the following method.
Mouse neuro 2a cells in the logarithmic growth period in the Dulbecco's modified Eagle's medium [DMEM, containing 100 units/ml of penicillin G sodium and 100 micrograms/ml of streptomycin sulfate] containing 10% of FCS were seeded in a 48-well plate so that the number of cells was 1,000 cells/well, and cultured for one day in 0.25 ml of the culture fluid in each well in an incubator containing 5% of carbon dioxide gas in air at 37° C. The medium was replaced by a medium containing each antibiotics and FCS and the cells were further cultured for 24 hours. Then, a 4% aqueous glutaraldehyde solution in the same amount as a medium (0.25 ml) was added, and the culture was left to stand at room temperature for 2 hours to fix the cells. After washing with water, a 0.05% aqueous solution of methylene blue was added to stain the cells. Under a microscope, the number of cells containing outgrown neurites (cells having at least one neurite with a length of at least two times as large as the long diameter of the cell) was counted visually, and the proportion of these cells in the entire cells was calculated. The well was observed over 5 or more visual fields (at least 2% of the entire surface area of the well) continuous to the left and right from a mark put at the center of the well, and more than 200 cells was counted. One drug compound was used in 6 different concentrations at most, and three runs were conducted for each concentration.

mouse = assay: Acute toxicity in mouse (Table 10); assay type: in vivo
Description: The acute toxicity of the compounds of the invention was examined by the following method.
Male ddy-strain 5-week old mice, 4-6 per group, were used as experimental animals. Each of the compounds was dissolved or suspended in saline and administered perorally (p.o.) or intraperitoneally (i.p.), and the toxicity of the compound was assessed 24 hours after the administration.

[2] = i.p., 24 hours after administration

| SMILES | The number of cells in which neurites appeared/Total number of cells ([1]; 24 hour, 0.1 mM) | The number of cells in which neurites appeared/Total number of cells ([1]; 24 hour, 0.5 mM) | The number of cells in which neurites appeared/Total number of cells ([1]; 48 hour, 0.5 mM) | Ratio of the number of cells having neurites with a length of at least two times as large as the diameter of cells to the total number of cells (Mouse neuro 2a cells; 0.01 mM) | Ratio of the number of cells having neurites with a length of at least two times as large as the diameter of cells to the total number of cells (Mouse neuro 2a cells; 0.1 mM) | Ratio of the number of cells having neurites with a length of at least two times as large as the diameter of cells to the total number of cells (Mouse neuro 2a cells; 0.3 mM) | Ratio of the number of cells having neurites with a length of at least two times as large as the diameter of cells to the total number of cells (Mouse neuro 2a cells; 1 mM) | Estimated LD50 (mouse; [2]) | The number of cells in which neurites appeared/Total number of cells ([1]; 24 hour, 0.2 mM) | The number of cells in which neurites appeared/Total number of cells ([1]; 48 hour, 0.2 mM) | Estimated LD50 (mouse; in vivo, ip) | Ratio of the number of cells having neurites with a length of at least two times as large as the diameter of cells to the total number of cells (Mouse neuro 2a cells; 0.03 mM) | The number of cells in which neurites appeared/Total number of cells ([1]; 48 hour, 0.1 mM) |
| --- | --- | --- | --- | --- | --- | --- | --- | --- | --- | --- | --- | --- | --- |
| O=C1CCCN1c1ccnc(N2CCCC2)n1 [Compound 320] | 5/50 | 6/50 | 3/50 | 4.2 ± 1.9% | 4.2 ± 0.3% | 11.0 ± 0.8% | 10.7 ± 4.7% | > 500 mg/kg |  |  |  |  |  |
| CC(=O)c1ccc(C(=O)N(C)c2ccnc(N3CCCCC3)n2)cc1 [Compound 208] |  | 3/50 | 5/50 |  |  | 7.9 ± 0.6% | 12.7 ± 3.0% |  | 2/50 | 6/50 | > 1000 mg/kg |  |  |
| O=C1CCCN1c1ccnc(N2CCOCC2)n1 [Compound 392] |  | 15/50 | 21/50 |  | 5.6 ± 3.7% | 6.1 ± 4.0% |  | > 500 mg/kg | 10/50 | 12/50 |  | 6.6 ± 2.2% |  |
| CC1CCN(c2nccc(N3CCCC3=O)n2)CC1 [Compound 304] | 8/50 | 16/50 | 17/50 |  | 6.8 ± 1.0% | 17.7 ± 2.9% | 16.3 ± 4.5% |  | 12/50 | 14/50 | 250 to 500 mg/kg | 3.7 ± 1.2% | 7/50 |
| CCC1CCN(c2nccc(N3CCCC3=O)n2)CC1 [Compound 312] | 6/50 | 17/50 | 18/50 | 3.8 ± 0.6% | 12.7 ± 2.8% |  |  | > 500 mg/kg | 13/50 | 13/50 |  | 4.1 ± 1.2% | 8/50 |
| O=C1CCCN1c1ccnc(N2CCN(c3ccccc3)CC2)n1 [Compound 416] |  | 9/50 | 9/50 | 5.0 ± 1.9% | 4.4 ± 0.4% | 5.1 ± 1.2% |  | > 500 mg/kg | 6/50 | 7/50 |  |  |  |
| CN(C(=O)c1ccccc1)c1ccnc(N2CCc3ccccc32)n1 [Compound 104] |  | 4/50 | 3/50 |  | 5.2 ± 2.9% |  |  | > 1000 mg/kg | 3/50 | 4/50 |  | 3.4 ± 1.0% |  |
| CN1CCN(c2nccc(N3CCCC3=O)n2)CC1 [Compound 408] |  | 10/50 | 11/50 |  |  | 4.4 ± 0.2% |  | > 500 mg/kg | 7/50 | 8/50 |  | 4.9 ± 0.2% |  |
| O=C1CCCN1c1ccnc(N2CCc3ccccc3C2)n1 [Compound 352] |  |  |  | 3.4 ± 0.1% |  | 4.2 ± 0.6% |  | > 500 mg/kg | 5/50 | 3/50 |  |  |  |
